Counter-ions that a name gives are not always drawn.
System: SARS2-S-mediated membrane fusion
Type: cell-based, SARS-CoV-2

In the case of `CC(CN(C)C)CN1c2ccccc2Sc2ccccc21` (centres unmarked) [Alimemazine tartrate], the “SARS2-S-mediated membrane fusion (average number of nuclei in each syncytium)” value is reported as “reduced the formation of syncytia” and the “membrane fusion by mutant SARS2-S (Δ69–70, N501Y, E484K, D614G)” value is reported as “reduced the formation of syncytia”.
